From PMC5838147, “Modulation of Oral Bioavailability and Metabolism for Closely Related Cyclic Hexapeptides” (International Journal of Peptide Research and Therapeutics, 2017)
In brackets after ≈: the same amount, converted by molar mass. Where two headings read alike, the source gives them in different places. Where a SMILES comes first, the peptide text is derived from it. [ ]: non-standard residue; d: D form. NMeY = CN[C@@H](Cc1ccc(O)cc1)C(=O)O; NMeL = CN[C@@H](CC(C)C)C(=O)O; dNMeL = CN[C@H](CC(C)C)C(=O)O; Abu = CC[C@H](N)C(=O)O

Experiments:
[1] = plasma
Protocol: (§1) The values relate to single experiments. […] This has been estimated by looking at independent replicates across the assay dynamic range.
(§2) In order to make predictions of pharmacokinetic properties of these cyclic peptides, further in vitro evaluation was carried out to determine plasma-protein binding (PPB) and metabolic stability in mouse liver microsomes (MLM). […] In order to predict clearance in vivo, evaluation in vitro was assessed in MLM.

[2] = mouse, in vivo; for Vd / clearance: iv, 1 mg/kg; for Tmax: po
Protocol: (§3) For mouse PK on peptides (4) and (5), blood concentrations versus time profiles were obtained from 2 groups of 3 male C57Bl/6 mice. In the intravenous PK group (n = 3), the compound was administered intravenous (i.v.) by bolus injection (5 mL/kg) at a dose of 1 mg/kg, solubilized in N-Methyl-2-pyrrolidone (10%) and blank plasma (90%). For oral PK, another group of 3 male C57Bl/6 mice, a dose of 3 mg/kg was orally applied (dosing volume of 10 mL/kg) as a homogenous suspension of water (99%), Tween80 (0.5%) and methylcellulose (0.5%).
(§4) For both rodents, blood samples (10–50 µL) were collected at 0.08 (i.v. only), 0.25, 0.5, 1, 2, 4, 7, and 24 h after dosing. […] Analyses of parent compound concentrations were carried out in blood using LC-MS/MS. An aliquot of 30 μL was taken and added to 200 μL MeCN (including Glyburide (c = 50 ng/mL) as internal standard) for protein precipitation. Sample analysis was performed on a LC–MS/MS system consisting of an AB SCIEX API 5500 QTrap mass spectrometer equipped with a TurboIonSpray™ interface (Framingham, USA). The MS system was connected to a HTS CTC PAL auto-sampler (Zwingen, Switzerland) and to a Flux Rheos 2200 pump system (Reinach, Switzerland). The supernatants (2 µL) were injected directly onto the LC-MS/MS system for analysis. The test articles and its internal standard were separated with a Phenomenex Kinetex C18 (50 × 2 mm ID, 2.7 µm pore size). A binary gradient with a mobile phase consisting of water (A) and acetonitrile (B) was used for the LC-separation. Both mobile phases (A) and (B) were acidified with 0.1% formic acid. The elution gradient program was as follows: [time (min), (% mobile phase B): (0, 95) (5.8, 85) (5.81, 99) (6.5, 99) (6.51, 95) (8, 95)]. The column temperature was maintained at 50 °C using a column heater. Under these experimental conditions, the LLOQ was 0.4 ng/mL.

[3] = mouse, microsomes
Protocol: as §1, §2

[4] = mouse
Protocol: as §3, §4

[5] = rat, in vivo, 3 mg/kg; for clearance: iv; for AUC: po
Protocol: (§5) For rat PK, blood concentration versus time profiles were obtained from 3 male Sprague Dawley rats. For intravenous PK, the compound was administered intravenously by bolus injection (0.5 mL/kg) at a dose of 3 mg/kg, solubilized in N-Methyl-2-pyrrolidone (30%) and PEG200 (70%). For oral PK, after a washout period of 48 h, an oral gavage was administered to the same animals at a dose of 3 mg/kg at a dosing volume of 2.5 mL/kg. The oral dose was dispersed in water (99%), Tween80 (0.5%) and methylcellulose (0.5%), forming a homogenous suspension. For both rodents, blood samples (10–50 µL) were collected at 0.08 (i.v. only), 0.25, 0.5, 1, 2, 4, 7, and 24 h after dosing. To investigate the absorption and the impact of pre-systemic metabolism, the model of portal vein cannulation in rats was applied for compounds orally dosed in a cassette. The week before the PK experiments, the rats were surgically prepared with catheter implantation into the right jugular vein (for collection of blood from the systemic circulation) and the hepatic portal vein (for collection of blood from the portal vein, i.e. after intestinal absorption and metabolism and before liver pe-systemic metabolism). After recovery, the rats were orally dosed by gavage (same dose, volume and formulation as described above), and blood samples (50 µL) were collected at 0.25, 0.5, 1, 2, 4, 7, and 24 h concomitantly from the 2 blood vessels. Analyses of parent compound concentrations were carried out in blood using LC-MS/MS. An aliquot of 30 μL was taken and added to 200 μL MeCN (including Glyburide (c = 50 ng/mL) as internal standard) for protein precipitation. Sample analysis was performed on a LC–MS/MS system consisting of an AB SCIEX API 5500 QTrap mass spectrometer equipped with a TurboIonSpray™ interface (Framingham, USA). The MS system was connected to a HTS CTC PAL auto-sampler (Zwingen, Switzerland) and to a Flux Rheos 2200 pump system (Reinach, Switzerland). The supernatants (2 µL) were injected directly onto the LC-MS/MS system for analysis. The test articles and its internal standard were separated with a Phenomenex Kinetex C18 (50 × 2 mm ID, 2.7 µm pore size). A binary gradient with a mobile phase consisting of water (A) and acetonitrile (B) was used for the LC-separation. Both mobile phases (A) and (B) were acidified with 0.1% formic acid. The elution gradient program was as follows: [time (min), (% mobile phase B): (0, 95) (5.8, 85) (5.81, 99) (6.5, 99) (6.51, 95) (8, 95)]. The column temperature was maintained at 50 °C using a column heater. Under these experimental conditions, the LLOQ was 0.4 ng/mL.
(§6) Accordingly, we decided to conduct a hepatic portal vein (H.P.V.) study in Sprague Dawley rats due to the technical difficulties associated with a smaller species like mice. Rats were equipped with double jugular vein and hepatic portal vein cannulation. A standard jugular vein cannulation experiment was run in parallel as a control.

[6] = rat, in vivo, po, 3 mg/kg
Protocol: as §5, §6

[7] = Supercritical fluid chromatography (SFC) retention, exposed polarity; assay type: physicochemical; conditions: Chirex 3014 column, reflects exposure of polar groups
From the text: Conditions for analytical supercritical fluid chromatography (SFC) were taken from previous publications (Goetz et al. [2014a], [b]). The Pirkle chiral stationary phase Chirex 3014, a silica bonded (S)-valine and (R)-1-(α-naphthyl)ethylamine with a urea linkage, was selected. A mobile phase of 15% methanol in supercritical CO2 enabled adequate separation in combination with a low-slope gradient. High retention times were mitigated by increasing the percentage of methanol in the eluent and the addition of the relatively weak salt pair ammonium formate. In the resulting chromatographic system, differences in retention depend upon hydrophobic interactions, the ability for hydrogen bonding, the presence of dipoles, and van der Waals interactions of the solutes with the stationary phase (Goetz et al. [2014a], [b]).
Next, we applied SFC-analysis to compare calculations related to polar surface area with experimentally derived data. […] Thus, calibrated SFC retention times can be compared to the SAPSA values obtained from molecular dynamics. […] As a result, shielding of polar atoms under SFC conditions is realized most optimally in the Abu derivative (4) leading to a short retention time of 2.7 min. […] However, in this case the best permeability was attributed to the Phe analogue. […] However, most likely in the case of peptide (5), for which the MDCK assay is not aligned with PAMPA and SFC, the low predictability for oral uptake would have excluded this candidate from an in vivo experiment. Taking into account the in vitro profiling, it seems possible to identify cyclic peptides with good permeability and solubility.

in vitro [8] = conditions: mouse, microsomes
Protocol: as §1, §2

in vivo = conditions: male, po
Protocol: as §3, §4

in vitro [9] = conditions: dog, MDCK
Protocol: (§7) The values relate to single experiments. For the MDCK assay, the lower limit of quantification (LLOQ) was 5 nM, and for PAMPA 2 nM, respectively. […] This has been estimated by looking at independent replicates across the assay dynamic range.

physchem = conditions: pH 6.8, thermodynamic from solid
Protocol: as §7

[10] = in vivo, cited from earlier work; for CL Mouse / Vss: iv, 2.1 mg/kg; for Vss / Tmax / T1/2term: mouse; for Tmax: po, 7.1 mg/kg

## CC[C@@H]1NC(=O)[C@H]2CCCN2C(=O)[C@H](CC(C)C)NC(=O)[C@H](CC(C)C)N(C)C(=O)[C@@H](CC(C)C)N(C)C(=O)[C@H](CC(C)C)NC1=O [(4), [Abu-Leu-NMe-D-Leu-NMe-Leu-Leu-D-Pro]] (cyclo([Abu]L[dNMeL][NMeL]L[dP]))
[1]
  fraction unbound: < 0.01
[2]
  half-life: 48 ± 12 min
  Vd: 2.1 ± 0.2 L/kg
  clearance: 49 ± 14 mL/min/kg
[2]; 3 mg/kg
  Tmax: 18 min
[3]
  clearance in the MLM assay (in words): very high CL
other
  Log PAMPA: −4.3
[4]
  class for in vivo CL in mice: medium CL
[5]
  clearance: 41 mL/min/kg
[5]; Jugular vein (AuC)
  AUC: 1.66 µM·h
[5]; Portal vein (AuC)
  AUC: 1.84 µM·h
[6]
  Liver first pass effect: 11%
[7]
  SFC: 2.7 min
In vitro [8]
  microsomal CLint: 324 µL/min/mg
In vivo; C57BL/6, mouse
  bioavailability: 39 ± 4%
In vitro [9]
  Papp: 4 ×10⁻⁶ cm/s
physchem
  solubility thermodynamic: 602 µM (≈ 399 µg/mL)

## CC(C)C[C@@H]1NC(=O)[C@H](Cc2ccc(O)cc2)NC(=O)[C@H]2CCCN2C(=O)[C@H](CC(C)C)NC(=O)[C@H](CC(C)C)NC(=O)[C@@H](CC(C)C)NC1=O [(1), [Tyr-Leu-D-Leu-Leu-Leu-D-Pro-]] (cyclo(LL[dP]YL[dL]))
[1]
  fraction unbound: 0.08
[10]
  CL Mouse: 82 ± 15 mL/min/kg
  Vss: 0.8 ± 0.2 L/kg
  Tmax: 36 ± 18 min
  T1/2term: 12 ± 0 min
[4]
  class for in vivo CL in mice: high CL
[7]
  SFC: 4.8 min
In vitro [8]
  microsomal CLint: 95 µL/min/mg
physchem
  solubility thermodynamic: 151 µM (≈ 108 µg/mL)

## CC(C)C[C@@H]1NC(=O)[C@H](Cc2ccc(O)cc2)N(C)C(=O)[C@H]2CCCN2C(=O)[C@H](CC(C)C)NC(=O)[C@H](CC(C)C)N(C)C(=O)[C@@H](CC(C)C)N(C)C1=O [(2), [NMe-Tyr-Leu-NMe-D-Leu-NMe-Leu-Leu-D-Pro]] (cyclo(L[dNMeL][NMeL]L[dP][NMeY]))
[1]
  fraction unbound: < 0.01
[10]
  CL Mouse: 1 ± 0 mL/min/kg
  Vss: 0.4 ± 0.0 L/kg
  Tmax: 228 ± 186 min
  T1/2term: 1360 ± 324 min
[3]
  clearance in the MLM assay (in words): medium clearance
[4]
  class for in vivo CL in mice: low CL
[7]
  SFC: 4.1 min
In vitro [8]
  microsomal CLint: 63 µL/min/mg
physchem
  solubility thermodynamic: 26 µM (≈ 19.6 µg/mL)

## CC(C)C[C@@H]1NC(=O)[C@H](Cc2ccccc2)NC(=O)[C@H]2CCCN2C(=O)[C@H](CC(C)C)NC(=O)[C@H](CC(C)C)N(C)C(=O)[C@@H](CC(C)C)N(C)C1=O [(3), [Phe-Leu-NMe-D-Leu-NMe-Leu-Leu-D-Pro]] (cyclo(FL[dNMeL][NMeL]L[dP]))
[1]
  fraction unbound: < 0.01
[2]
  half-life: 330 ± 24 min
  Vd: 0.6 ± 0.1 L/kg
  clearance: 2 mL/min/kg
[2]; 7.5 mg/kg
  Tmax: 18 ± 6 min
[3]
  clearance in the MLM assay (in words): very high CL
other
  Log PAMPA: −4.0
[4]
  class for in vivo CL in mice: low CL
[7]
  SFC: 2.9 min
In vitro [8]
  microsomal CLint: 488 µL/min/mg
In vivo; OF1, mouse
  bioavailability: 7 ± 2%
In vitro [9]
  Papp: 11.6 ×10⁻⁶ cm/s
physchem
  solubility thermodynamic: 30 µM (≈ 21.7 µg/mL)

## CC(C)C[C@@H]1NC(=O)[C@H](C)NC(=O)[C@H]2CCCN2C(=O)[C@H](CC(C)C)NC(=O)[C@H](CC(C)C)N(C)C(=O)[C@@H](CC(C)C)N(C)C1=O [(5), [Ala-Leu-NMe-D-Leu-NMe-Leu-Leu-D-Pro]] (cyclo(AL[dNMeL][NMeL]L[dP]))
[1]
  fraction unbound: < 0.01
[2]
  half-life: 24 ± 6 min
  Vd: 2.8 ± 0.3 L/kg
  clearance: 105 ± 26 mL/min/kg
[2]; 3 mg/kg
  Tmax: 18 min
[3]
  clearance in the MLM assay (in words): very high CL
other
  Log PAMPA: −4.6
[4]
  class for in vivo CL in mice: high CL
[5]
  clearance: 70 mL/min/kg
[5]; Jugular vein (AuC)
  AUC: 0.104 µM·h
[5]; Portal vein (AuC)
  AUC: 0.449 µM·h
[6]
  Liver first pass effect: 77%
[7]
  SFC: 2.8 min
In vitro [8]
  microsomal CLint: 654 µL/min/mg
In vivo; C57BL/6, mouse
  bioavailability: 23 ± 4%
In vitro [9]
  Papp: 2.7 ×10⁻⁶ cm/s
physchem
  solubility thermodynamic: > 1000 µM
